Laboratory results from publication PMC6770581, “New Thalidomide-Resembling Dicarboximides Target ABC50 Protein and Show Antileukemic and Immunomodulatory Activities” (Biomolecules, 2019).

Tests used:
Assay type in all cases: cell-based, human
caspase 3 and PARP = test: Western blot of caspase 3 and PARP cleavage in K562 cells; conditions: 24 h
Experimental: (§1) 0.15 × 10^6 cells/ml were seeded on a 6-well plate (Nunclon, Thermo Fisher Scientific, Waltham, MA, USA). Following 24 hour preincubation the cells were treated with either the compound or 1% DMSO (control) for 24 or 48 hours. Cells were lysed using RIPA Buffer (Sigma) supplemented with Complete Protease Inhibitor Coctail (Roche, Basel, Switzerland) and PhosSTOP (Roche). Samples containing 20 µg protein were resuspended in 4× Laemmli’s Buffer (Biorad, Hercules, CA, USA), separated on 10% acrylamide gel (TGX Stain-Free Gel Kit, Biorad) and blotted onto nitrocellulose membrane (Panreac Applichem ITW, Darmstadt, Germany). Blots were blocked in 5% non-fat dry milk in TBST (1% (v/v) Tween-20, 140 mM NaCl, 25 mM Trizma, pH = 7.4 adjusted with HCl) for 1 h and incubated overnight with the antibodies against caspase-9 (9502), caspase-8 (9746), caspase-3 (9662), caspase-3 cleaved (9661) and β-actin (3700), all from Cell Signaling Technology, and antibody against poly(ADP-ribose)polymerase (PARP, 551025) from BD Pharmingen. Membranes were incubated with appropriate species-specific secondary antibodies conjugated with HRP (Cell Signaling Technology, Danvers, MA, USA). Blots were developed using ECL substrate (Biorad, Hercules, CA, USA). The experiment was performed in at least three independent biological replicates.

caspase 8 and caspase 9 = test: Western blot of caspase 8 and caspase 9 cleavage in K562 cells; conditions: K562, 5 µM
Experimental: as §1

[1] = test system: HeLa cells with knocked-down ABC50 (HeLa kdABC); test: MTT viability of HeLa cells with siRNA knockdown of ABC50; conditions: 48 h
Experimental: Human umbilical vein endothelial cells (purchased from Life Technologies, Carlsbad, CA, USA) were cultured according to the manufacturer’s instructions in Medium 200 supplemented with Low Serum Growth Supplement. 1 × 10^4 cells were seeded on each well on a 96-well plate (Nunc, Roskilde, Denmark). The HeLa (human cervix carcinoma, cat. #93021013), CFPAC (human pancreatic adenocarcinoma, cat. #91112501), K562 (chronic myelogenous leukemia, cat. #89121407), HL-60 (acute myelogenous leukemia, cat. #98070106), and MOLT-4 (Human acute T lymphoblastic leukemia, cat. #85011413) cells were purchased from European Collection of Authenticated Cell Cultures (ECACC). They were cultured in an RPMI 1640 medium supplemented with antibiotics (streptomycin, penicillin) and 10% fetal calf serum (20% for HL60), in a 5% CO2-95% air atmosphere. 7 × 10^3 cells were seeded on each well on a 96-well plate (Nunc). 24 hours later the cells were exposed to the test compounds. […] The cytotoxicity of all compounds was determined by the MTT (3-(4,5-dimethylthiazol-2-yl)-2,5-diphenyltetrazolium bromide) assay (Sigma, St. Louis, MO, USA). […] MTT-formazan crystals were dissolved in 20% SDS and 50% DMF at pH 4.7 and VIS light absorption was measured at 570 and 650 nm on a microplate reader FLUOstar Omega (BMG Labtech, Offenburg, Germany). […]
HeLa cells were transfected with a siRNA with the aid of Lipofectamine 3000 (Invitrogen, Carlsbas, CA, USA) according to manufacturer’s instructions. […] Unless otherwise stated, cells transfected with a given siRNA were analyzed 48 h post-transfection. siRNAs for ABC50 (NM_001090) were designed with the aid of the siDESIGN Center (www.dharmacon.com), synthesized in-house (the Department of Bioorganic Chemistry, Centre of Molecular and Macromolecular Studies, Polish Academy of Sciences (CMMS PAS) and purified by high-performance liquid chromatography (HPLC). The silencing efficiency of siRNAs was determined by western blotting of ABC50 protein in transfected HeLa cells. The following siRNA duplexes (S—sense strand, AS—antisense strand) were used: […]

Row | Structure (SMILES) | caspase 3 and PARP cleavage (Western blot) (caspase 3 and PARP) | cleavage of caspase 8 and caspase 9 (Western blot) (caspase 8 and caspase 9; 24 h) | cleavage of caspase 8 and caspase 9 (Western blot) (caspase 8 and caspase 9; 48 h) | viability of HeLa cells with normal levels of ABC50 (siCTL) ([1]; control siRNA, up to 2.5 µM) | reduction of viability of HeLa kdABC ([1]; si166, 5 µM) | viability of HeLa cells with knocked-down ABC50 (HeLa kdABC) ([1]; si166, up to 2.5 µM)
1 | CCC12C(=O)C(CC)(C(c3ccccc3)=C1c1ccccc1)C1C(=O)N(CC(O)CNC(C)C)C(=O)C12 (stereo not drawn) [Compound 5] | presence of cleavage fragments of PARP (85 kDa) and caspase 3 (17 kDa) | cleaved form of caspase 9 | Cleaved (i.e., activated) forms of caspases 8/9 were detected |  |  | 
2 | CN(C)CCN1C(=O)C2C(C1=O)C1(c3ccccc3)CC2(c2ccccc2)C(c2ccccc2)=C1c1ccccc1 (stereo not drawn) [Compound 6] |  |  |  | significantly lower | about 20% | not affected
